Data from patent US20240174723A1, “STAPLED ANTIMICROBIAL PEPTIDES (STAMPS) AND USES THEREOF” (Lytica Therapeutics, Inc., priority 2021, published 2024).
Values after ≈ are worked out from the molar mass of the structure shown. Each block holds one molecule with its values, some of them ahead of it. Positions of bridges follow the written chain, without caps; N, C: chain ends. Non-standard residues stand in square brackets, D forms with d. Residues, ends and D or L forms follow the SMILES beside them. S5 = C=CCCC[C@](C)(N)C(=O)O; Dap = NC[C@H](N)C(=O)O

Legend:
in vitro = type: cell-based; details: human, Inhibitory Concentration at 50% Cytotoxicity (IC50) Human Liver Cells (HepG2)
Description: Cell culture: RPTEC were maintained in MEM media supplemented with growth factors. HEPG2 cell line was maintained in Eagle's Minimum Essential Medium (EMEM) supplemented with fetal bovine serum to a final concentration of 10%.
48 hours cytotoxicity assay: Cells were plated in a 96-well format, and after 4 hour incubation to allow attachment, serial dilutions of StAMPs from a 5 mg/mL water stock, or vehicle, were then added to the cells in a final volume of 100 μl. After incubating at 37° C. for 48 hours, 100 μl of CellTiter-Glo® reagent was added to the cells, and the plates were incubated 10 minutes at room temperature. Luminescence was then measured on a microplate reader.
(§1) Renal toxicity was measured after 90 minutes of incubation, while liver toxicity was measured after 48 hours of incubation with StAMPs. N/A=not tested. The following apply to all peptides (i.e., StAMPs) listed in Tables A-C: Crosslinks (X^1—X^2 and X^3—X^4): (alk); N-terminus: —NH2; C-terminus: amidated with —NH2; counterion: Cl^−. The following apply to all peptides (i.e., StAMPs) listed in Table D: Crosslinks (X^1—X^2 and X^3—X^4): (alk); N-terminus: —NH2; C-terminus: as shown in table; counterion: Cl^−.

A. baumannii = type: cell-based, Acinetobacter baumannii
Description: (§2) Antimicrobial Activity Assay: The following microbroth dilution protocol was adapted from CLSI to determine the minimum inhibitory concentration (MIC) of StAMPs. Briefly, Mueller-Hinton broth (MHB) or cation-adjusted Mueller-Hinton broth (MHB II) was prepared and autoclaved. Then, a colony of bacterial cells was picked and grown overnight in broth at 37° C. and then diluted and allowed to grow again for 3-4 hours. Serial dilutions of peptide stocks in water (10 μl) were prepared using clear round-bottom polypropylene 96-well plates. Then 90 μl of bacteria in broth was added to give a final inoculum of 5×10^5 CFU/ml. The plates were then covered with porous tape to reduce evaporation and incubated for 20-24 hours at 37° C. The MIC was the minimum peptide concentration at which no visible bacterial growth was observed.
as §1

P. aeruginosa = type: cell-based, Pseudomonas aeruginosa
Description: as §2, §1
StAMP Micelle Formulation: DSPE-MPEG(2000) was suspended in buffered saline at 50-100 mg/mL overnight. StAMP stock solutions at 5-20 mg/mL in buffered saline were prepared and equal volumes of micelle and StAMP stock solution were mixed at the desired StAMP:Lipid ratio. Suspensions were allowed to sit for 5-10 minutes at room temperature before being used in in vitro and in vivo assays. […]

E. coli = type: cell-based, Escherichia coli
Description: as §2, §1

K. pneumoniae = type: cell-based, Klebsiella pneumoniae
Description: as §2, §1

S. aureus = type: cell-based, Staphylococcus aureus
Description: as §2, §1

SMILES: CC(C)[C@@H]1NC(=O)[C@@](C)(NC(=O)[C@H](C)NC(=O)[C@H](CCCCN)NC(=O)CNC(=O)[C@H](Cc2ccccc2)NC(=O)[C@H](CCCCN)NC(=O)[C@H](CCCCN)NC(=O)[C@H](CCCCN)NC(=O)[C@H](CCCCN)NC(=O)[C@H](CCCCN)NC(=O)[C@]2(C)CCCC=CCCC[C@](C)(NC(=O)CN)C(=O)NCC(=O)N[C@@H](CCCCN)C(=O)N[C@@H](Cc3ccccc3)C(=O)N2)CCCC=CCCC[C@@](C)(C(=O)N[C@@H](C)C(=O)N[C@@H](CCCCN)C(=O)N[C@@H](CCCCN)C(=O)NCC(=O)NCC(=O)N[C@@H](CCC(=O)O)C(=O)N[C@@H](CCC(=O)O)C(N)=O)NC(=O)[C@H](CCC(=O)O)NC(=O)CNC1=O [compound 55] (H-G[S5]GKF[S5]KKKKKFGKA[S5]VGE[S5]AKKGGEE-NH2; staple 2-6, 16-20)
IC50 at 48 hours (in vitro): 207 µg/mL (≈ 70.5 µM)
Minimum Inhibitory Concentration (MIC) A. baumannii (A. baumannii): 8 µg/mL
Minimum Inhibitory Concentration (MIC) P. aeruginosa (P. aeruginosa): 16 µg/mL
Minimum Inhibitory Concentration (MIC) E. coli (E. coli): 16 µg/mL
Minimum Inhibitory Concentration (MIC) K. pneumoniae (K. pneumoniae): 64 µg/mL
Minimum Inhibitory Concentration (MIC) S. aureus (S. aureus): >64 µg/mL

SMILES: CC(C)[C@@H]1NC(=O)[C@@](C)(NC(=O)[C@H](C)NC(=O)[C@H](CCCCN)NC(=O)CNC(=O)[C@H](Cc2ccccc2)NC(=O)[C@H](CCCCN)NC(=O)[C@H](CCCCN)NC(=O)[C@H](CCCCN)NC(=O)[C@H](CCCCN)NC(=O)[C@H](CN)NC(=O)[C@]2(C)CCCC=CCCC[C@](C)(NC(=O)CN)C(=O)NCC(=O)N[C@@H](CCCCN)C(=O)N[C@@H](Cc3ccccc3)C(=O)N2)CCCC=CCCC[C@@](C)(C(=O)N[C@@H](C)C(=O)N[C@@H](CCCCN)C(=O)N[C@@H](CCCCN)C(=O)NCC(=O)NCC(=O)N[C@@H](CCC(=O)O)C(N)=O)NC(=O)[C@H](CCC(=O)O)NC(=O)CNC1=O [compound 80] (H-G[S5]GKF[S5][Dap]KKKKFGKA[S5]VGE[S5]AKKGGE-NH2; staple 2-6, 16-20)
IC50 at 48 hours (in vitro): > 200 µg/mL
Minimum Inhibitory Concentration (MIC) A. baumannii (A. baumannii): 8 µg/mL
Minimum Inhibitory Concentration (MIC) P. aeruginosa (P. aeruginosa): 4 µg/mL
Minimum Inhibitory Concentration (MIC) E. coli (E. coli): 8 µg/mL
Minimum Inhibitory Concentration (MIC) K. pneumoniae (K. pneumoniae): >64 µg/mL
Minimum Inhibitory Concentration (MIC) S. aureus (S. aureus): >64 µg/mL

SMILES: CC(C)[C@@H]1NC(=O)[C@@](C)(NC(=O)[C@H](C)NC(=O)[C@H](CCCCN)NC(=O)CNC(=O)[C@H](Cc2ccccc2)NC(=O)[C@H](CCCCN)NC(=O)[C@H](CCCCN)NC(=O)[C@H](CN)NC(=O)[C@H](CCCCN)NC(=O)[C@H](CCCCN)NC(=O)[C@]2(C)CCCC=CCCC[C@](C)(NC(=O)CN)C(=O)NCC(=O)N[C@@H](CCCCN)C(=O)N[C@@H](Cc3ccccc3)C(=O)N2)CCCC=CCCC[C@@](C)(C(=O)N[C@@H](C)C(=O)N[C@@H](CCCCN)C(=O)N[C@@H](CCCCN)C(=O)NCC(=O)NCC(=O)N[C@@H](CCC(=O)O)C(N)=O)NC(=O)[C@H](CCC(=O)O)NC(=O)CNC1=O [compound 81] (H-G[S5]GKF[S5]KK[Dap]KKFGKA[S5]VGE[S5]AKKGGE-NH2; staple 2-6, 16-20)
IC50 at 48 hours (in vitro): > 200 µg/mL
Minimum Inhibitory Concentration (MIC) A. baumannii (A. baumannii): 4 µg/mL
Minimum Inhibitory Concentration (MIC) P. aeruginosa (P. aeruginosa): 16 µg/mL
Minimum Inhibitory Concentration (MIC) E. coli (E. coli): 8 µg/mL
Minimum Inhibitory Concentration (MIC) K. pneumoniae (K. pneumoniae): 64 µg/mL
Minimum Inhibitory Concentration (MIC) S. aureus (S. aureus): >64 µg/mL

SMILES: CC(C)[C@@H]1NC(=O)[C@@](C)(NC(=O)[C@H](C)NC(=O)[C@H](CCCCN)NC(=O)CNC(=O)[C@H](Cc2ccccc2)NC(=O)[C@H](CCCCN)NC(=O)[C@H](CCCCN)NC(=O)[C@H](CN)NC(=O)[C@H](CCCCN)NC(=O)[C@H](CN)NC(=O)[C@]2(C)CCCC=CCCC[C@](C)(NC(=O)CN)C(=O)NCC(=O)N[C@@H](CCCCN)C(=O)N[C@@H](Cc3ccccc3)C(=O)N2)CCCC=CCCC[C@@](C)(C(=O)N[C@@H](C)C(=O)N[C@@H](CCCCN)C(=O)N[C@@H](CCCCN)C(N)=O)NC(=O)[C@H](CCC(=O)O)NC(=O)CNC1=O [compound 82] (H-G[S5]GKF[S5][Dap]K[Dap]KKFGKA[S5]VGE[S5]AKK-NH2; staple 2-6, 16-20)
IC50 at 48 hours (in vitro): 190 µg/mL (≈ 76.6 µM)
Minimum Inhibitory Concentration (MIC) A. baumannii (A. baumannii): 1 µg/mL
Minimum Inhibitory Concentration (MIC) P. aeruginosa (P. aeruginosa): 2 µg/mL
Minimum Inhibitory Concentration (MIC) E. coli (E. coli): 4 µg/mL
Minimum Inhibitory Concentration (MIC) K. pneumoniae (K. pneumoniae): 64 µg/mL
Minimum Inhibitory Concentration (MIC) S. aureus (S. aureus): >64 µg/mL

Continued, in another order:

Minimum Inhibitory Concentration (MIC) A. baumannii (A. baumannii): 64 µg/mL
Minimum Inhibitory Concentration (MIC) P. aeruginosa (P. aeruginosa): 32 µg/mL
Minimum Inhibitory Concentration (MIC) E. coli (E. coli): 64 µg/mL
Minimum Inhibitory Concentration (MIC) K. pneumoniae (K. pneumoniae): >64 µg/mL
Minimum Inhibitory Concentration (MIC) S. aureus (S. aureus): >64 µg/mL
SMILES: CC(C)[C@@H]1NC(=O)[C@@](C)(NC(=O)[C@H](C)NC(=O)[C@H](CCCCN)NC(=O)CNC(=O)[C@H](Cc2ccccc2)NC(=O)[C@H](CCCCN)NC(=O)[C@H](CCCCN)NC(=O)[C@H](CN)NC(=O)[C@H](CCCCN)NC(=O)[C@H](CN)NC(=O)[C@]2(C)CCCC=CCCC[C@](C)(NC(=O)CN)C(=O)NCC(=O)N[C@@H](CCCCN)C(=O)N[C@@H](Cc3ccccc3)C(=O)N2)CCCC=CCCC[C@@](C)(C(=O)N[C@@H](C)C(=O)N[C@@H](CCCCN)C(=O)N[C@@H](CCCCN)C(=O)NCC(=O)NCC(=O)N[C@@H](CCC(=O)O)C(N)=O)NC(=O)[C@H](CCC(=O)O)NC(=O)CNC1=O [compound 83] (H-G[S5]GKF[S5][Dap]K[Dap]KKFGKA[S5]VGE[S5]AKKGGE-NH2; staple 2-6, 16-20)
IC50 at 48 hours (in vitro): > 200 µg/mL

Minimum Inhibitory Concentration (MIC) A. baumannii (A. baumannii): 0.5 µg/mL
Minimum Inhibitory Concentration (MIC) P. aeruginosa (P. aeruginosa): 2 µg/mL
Minimum Inhibitory Concentration (MIC) E. coli (E. coli): 2 µg/mL
Minimum Inhibitory Concentration (MIC) K. pneumoniae (K. pneumoniae): 16 µg/mL
Minimum Inhibitory Concentration (MIC) S. aureus (S. aureus): 64 µg/mL
SMILES: CC(C)[C@@H]1NC(=O)[C@@](C)(NC(=O)[C@H](C)NC(=O)[C@H](CCCCN)NC(=O)CNC(=O)[C@H](Cc2ccccc2)NC(=O)[C@H](CCCCN)NC(=O)[C@H](CCCCN)NC(=O)[C@H](CCCCN)NC(=O)[C@H](CO)NC(=O)[C@H](CN)NC(=O)[C@]2(C)CCCC=CCCC[C@](C)(NC(=O)CN)C(=O)NCC(=O)N[C@@H](CCCCN)C(=O)N[C@@H](Cc3ccccc3)C(=O)N2)CCCC=CCCC[C@@](C)(C(=O)N[C@@H](C)C(=O)N[C@@H](CCCCN)C(=O)N[C@@H](CCCCN)C(N)=O)NC(=O)[C@H](CCC(=O)O)NC(=O)CNC1=O [compound 85] (H-G[S5]GKF[S5][Dap]SKKKFGKA[S5]VGE[S5]AKK-NH2; staple 2-6, 16-20)
IC50 at 48 hours (in vitro): > 200 µg/mL

Minimum Inhibitory Concentration (MIC) A. baumannii (A. baumannii): 1 µg/mL
Minimum Inhibitory Concentration (MIC) P. aeruginosa (P. aeruginosa): 1 µg/mL
Minimum Inhibitory Concentration (MIC) E. coli (E. coli): 2 µg/mL
Minimum Inhibitory Concentration (MIC) K. pneumoniae (K. pneumoniae): 32 µg/mL
Minimum Inhibitory Concentration (MIC) S. aureus (S. aureus): 64 µg/mL
SMILES: CC(C)[C@@H]1NC(=O)[C@@](C)(NC(=O)[C@H](C)NC(=O)[C@H](CCCCN)NC(=O)[C@H](CO)NC(=O)[C@H](Cc2ccccc2)NC(=O)[C@H](CCCCN)NC(=O)[C@H](CCCCN)NC(=O)[C@H](CCCCN)NC(=O)[C@H](CCCCN)NC(=O)[C@H](CN)NC(=O)[C@]2(C)CCCC=CCCC[C@](C)(NC(=O)CN)C(=O)NCC(=O)N[C@@H](CCCCN)C(=O)N[C@@H](Cc3ccccc3)C(=O)N2)CCCC=CCCC[C@@](C)(C(=O)N[C@@H](C)C(=O)N[C@@H](CCCCN)C(=O)N[C@@H](CCCCN)C(N)=O)NC(=O)[C@H](CCC(=O)O)NC(=O)CNC1=O [compound 86] (H-G[S5]GKF[S5][Dap]KKKKFSKA[S5]VGE[S5]AKK-NH2; staple 2-6, 16-20)
IC50 at 48 hours (in vitro): > 200 µg/mL

Minimum Inhibitory Concentration (MIC) A. baumannii (A. baumannii): 1 µg/mL
Minimum Inhibitory Concentration (MIC) P. aeruginosa (P. aeruginosa): 2 µg/mL
Minimum Inhibitory Concentration (MIC) E. coli (E. coli): 4 µg/mL
Minimum Inhibitory Concentration (MIC) K. pneumoniae (K. pneumoniae): 64 µg/mL
Minimum Inhibitory Concentration (MIC) S. aureus (S. aureus): 64 µg/mL
SMILES: CC(C)[C@@H]1NC(=O)[C@@](C)(NC(=O)[C@H](CO)NC(=O)[C@H](CCCCN)NC(=O)CNC(=O)[C@H](Cc2ccccc2)NC(=O)[C@H](CCCCN)NC(=O)[C@H](CCCCN)NC(=O)[C@H](CCCCN)NC(=O)[C@H](CCCCN)NC(=O)[C@H](CN)NC(=O)[C@]2(C)CCCC=CCCC[C@](C)(NC(=O)CN)C(=O)NCC(=O)N[C@@H](CCCCN)C(=O)N[C@@H](Cc3ccccc3)C(=O)N2)CCCC=CCCC[C@@](C)(C(=O)N[C@@H](C)C(=O)N[C@@H](CCCCN)C(=O)N[C@@H](CCCCN)C(N)=O)NC(=O)[C@H](CCC(=O)O)NC(=O)CNC1=O [compound 87] (H-G[S5]GKF[S5][Dap]KKKKFGKS[S5]VGE[S5]AKK-NH2; staple 2-6, 16-20)
IC50 at 48 hours (in vitro): > 200 µg/mL
